Results on 1 compound are retold here after ChEMBL document CHEMBL2163297, “Discovery of novel PI3-kinase δ specific inhibitors for the treatment of rheumatoid arthritis: taming CYP3A4 time-dependent inhibition” (J Med Chem, 2012).

One may read the bioavailability as dose-corrected exposure relative to a reference, in per cent. The kinact is the maximal first-order rate at which the target is inactivated. For orientation: pIC50 means the negative decadic logarithm of the IC50, by convention in mol/L. A lower pIC50 goes with a high IC50. As a reminder, the pKi is −log10 of the Ki, conventionally taken in molar units. Read a low pKi as a high Ki.

pIC50, pKi: −log10 of the molar value.

For data set [1], the system named is Liver microsomes. Kind of data set: Metabolic stability in rat liver microsomes. The data set is classed as ADME, Microsome. (Liver microsomes are a subcellular fraction often used to study metabolism.)
Data set [2] relates to Liver microsomes. Briefly: Metabolic stability in human liver microsomes. The data set is classed as ADME, Microsome.
The nature of data set [3]: Volume of distribution at steady state in […] Wistar rat at 0.5 mg/kg, iv and 2 mg/kg, po. The data set is classed as ADME, organism-based. As to conditions: in vivo, read-out: Vdss.
The nature of data set [4]: Clearance in […] Wistar rat at 0.5 mg/kg, iv and 2 mg/kg, po. It counts as ADME, organism-based. The note with it: in vivo.
Data set [5] can be described thus: Oral bioavailability in […] Wistar rat at 2 mg/kg. It counts as ADME, organism-based. As to conditions: in vivo.
Data set [6] in a line: Selectivity ratio of IC50 for PI3Kgamma to IC50 for PI3Kdelta.
A further data set deals with CYP3A4 (Homo sapiens, UniProt P08684). Kind of data set: (§1) Time dependent inhibition of CYP3A4 in human liver microsomes preincubated for 30 mins. As to conditions: human, liver microsomes. The data set is classed as ADME, Microsome.
Another data set has as its target Cytochrome P450 3A4 (Homo sapiens, UniProt P08684). The description is as §1. The data set is classed as ADME, Microsome.
Data set [7] is described as follows: Selectivity ratio of IC50 for PI3Kbeta to IC50 for PI3Kdelta.
Data set [8] is described as follows: Selectivity ratio of IC50 for PI3Kalpha to IC50 for PI3Kdelta.
Data set [9] has as its target T1, Phosphatidylinositol 4,5-bisphosphate 3-kinase catalytic subunit delta isoform (Homo sapiens, UniProt O00329).
T1 sequence (O00329 whole entry): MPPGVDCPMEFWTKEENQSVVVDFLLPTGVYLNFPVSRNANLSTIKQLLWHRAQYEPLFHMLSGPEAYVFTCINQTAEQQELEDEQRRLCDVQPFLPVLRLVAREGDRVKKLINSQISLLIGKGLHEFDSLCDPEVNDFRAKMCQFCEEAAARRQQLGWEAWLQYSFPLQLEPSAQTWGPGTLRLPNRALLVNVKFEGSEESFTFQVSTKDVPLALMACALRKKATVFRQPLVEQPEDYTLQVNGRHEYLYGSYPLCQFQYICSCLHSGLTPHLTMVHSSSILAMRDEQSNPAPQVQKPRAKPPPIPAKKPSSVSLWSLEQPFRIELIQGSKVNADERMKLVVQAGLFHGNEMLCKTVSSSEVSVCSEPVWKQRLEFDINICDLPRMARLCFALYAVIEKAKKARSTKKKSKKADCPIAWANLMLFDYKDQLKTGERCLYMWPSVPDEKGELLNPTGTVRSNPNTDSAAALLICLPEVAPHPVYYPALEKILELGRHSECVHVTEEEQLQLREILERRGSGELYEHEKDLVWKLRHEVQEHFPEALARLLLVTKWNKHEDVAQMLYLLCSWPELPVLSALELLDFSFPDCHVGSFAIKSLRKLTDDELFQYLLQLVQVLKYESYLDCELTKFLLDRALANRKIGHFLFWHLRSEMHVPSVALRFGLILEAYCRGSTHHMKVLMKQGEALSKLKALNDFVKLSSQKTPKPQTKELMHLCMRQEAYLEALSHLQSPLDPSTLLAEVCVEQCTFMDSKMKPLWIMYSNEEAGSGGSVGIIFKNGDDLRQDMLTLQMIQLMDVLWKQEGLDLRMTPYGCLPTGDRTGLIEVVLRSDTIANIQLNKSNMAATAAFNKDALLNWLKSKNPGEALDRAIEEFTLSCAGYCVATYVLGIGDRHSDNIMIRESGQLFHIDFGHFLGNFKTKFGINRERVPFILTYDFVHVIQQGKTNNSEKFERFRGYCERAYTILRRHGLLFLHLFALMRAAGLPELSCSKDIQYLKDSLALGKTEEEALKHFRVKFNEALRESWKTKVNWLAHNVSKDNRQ
Description: Binding affinity to PI3Kdelta after 30 mins by competitive fluorescence polarization assay

Cytochrome P450 3A4, sequence (P08684 whole entry): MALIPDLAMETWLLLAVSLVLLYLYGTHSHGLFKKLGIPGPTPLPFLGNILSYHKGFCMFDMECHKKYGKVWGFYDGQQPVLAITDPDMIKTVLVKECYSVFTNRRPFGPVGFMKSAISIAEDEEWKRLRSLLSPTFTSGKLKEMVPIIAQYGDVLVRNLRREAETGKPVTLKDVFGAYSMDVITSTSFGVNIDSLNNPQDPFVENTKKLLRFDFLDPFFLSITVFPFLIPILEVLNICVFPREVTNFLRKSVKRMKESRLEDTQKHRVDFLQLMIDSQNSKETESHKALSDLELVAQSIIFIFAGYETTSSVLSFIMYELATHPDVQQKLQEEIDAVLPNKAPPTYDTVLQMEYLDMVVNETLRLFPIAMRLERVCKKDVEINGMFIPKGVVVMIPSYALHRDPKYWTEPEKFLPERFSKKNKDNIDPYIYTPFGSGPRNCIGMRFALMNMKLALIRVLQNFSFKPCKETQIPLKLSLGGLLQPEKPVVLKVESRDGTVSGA
CYP3A4, sequence (P08684 whole entry): as above

`CC(C)(C(N)=O)N1CCN(Cc2cc3nc(-c4c(F)ccc5[nH]ccc45)nc(N4CCOCC4)c3s2)CC1`: the results for the Stability in the data set with Liver microsomes [1] and with Liver microsomes [2] were 90.8% and 82.5%, respectively. For the same compound, the Vd in [3] came to 2.38 L/kg. The same compound registered a clearance in [4] of 31.3 mL/min/kg. The bioavailability in data set [5] amounted to 75.2%. For the same compound, the Ratio IC50 was 1880 in data set [6], 102 in [7] and 194 in data set [8]. Also, on CYP3A4, the kinact at 30 min is 0.00123 s⁻¹. The pIC50 against Cytochrome P450 3A4 was 5.82; in data set [9] it was 8.52. The pKi on Cytochrome P450 3A4 is 5.18.
